Where two headings read alike, the source gives them in different places.
Columns and labels:
[1] = for RFU change (Correlation analysis): probe-specific excitation λ, emission 545 nm
Method in brief: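 LCO probes at 3 μM mixed with serial two-fold dilutions of carbohydrate in dH2O (10–0.039 or 5–0.019 mg/ml, depending on carbohydrate), in triplicate. Excitation scanned 300–500 nm or fixed per probe (λmax or lowest background), emission at 545 nm. Detection taken as reproducible λmax/RFU shift vs no-carbohydrate control; RFU regressed linearly on concentration.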

[2] = for RFU change (Correlation analysis) / RFU change (Signal deviation with increasing [Carbohydrate]) / λmax change: 3 μM probe; for RFU change (Correlation analysis): probe-specific excitation λ, emission 545 nm; for RFU change (Signal deviation with increasing [Carbohydrate]) / λmax change: spectral analysis, Excitation 300-500, Emission 545
Method in brief: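 LCO probes at 3 μM mixed with serial twofold carbohydrate dilutions in dH2O (10–0.039 or 5–0.019 mg/ml, depending on carbohydrate). Excitation scanned 300–500 nm, emission read at 545 nm; detection defined as reproducible shift in λmax and/or RFU relative to negative control, with linear regression of RFU against concentration.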

[3] = Method in brief: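 LCO probes (3 μM) were added to serial two-fold dilutions of carbohydrate suspensions in dH2O, with excitation scanned 300–500 nm and emission at 545 nm. Detection was a reproducible λmax and/or RFU change versus no-carbohydrate control. RFU was regressed linearly against concentration at the λmax or the lowest-background excitation.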
[4] = remark: listed apart in the source
Method in brief: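 3 μM of each LCO probe was added to serial two-fold carbohydrate dilutions in water (10–0.039 or 5–0.019 mg/ml). Excitation spectra were scanned 300–500 nm with emission at 545 nm, in triplicate. Detection was defined as a reproducible shift in λmax and/or RFU versus negative control, with linear regression of RFU against concentration.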

[5] = remark: listed apart in the source
Method in brief: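 LCO probes at 3 μM mixed with serial two-fold carbohydrate dilutions in water (10–0.039 or 5–0.019 mg/ml), run in triplicate. Excitation scanned 300–500 nm with emission at 545 nm; detection based on reproducible λmax or RFU shift against the no-carbohydrate control, with linear regression of RFU on concentration.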

[6] = for RFU change (Correlation analysis) / RFU change (Signal deviation with increasing [Carbohydrate]) / λmax change: 3 μM probe; for RFU change (Correlation analysis): probe-specific excitation λ, emission 545 nm; for RFU change (Signal deviation with increasing [Carbohydrate]) / λmax change: spectral analysis, Excitation 300-500, Emission 545; for carbohydrate can be detected and/or differentiated by the LCO: conclusion from change in signal magnitude and/or shift in λmax; for Gradient Parameters (gradient of regression line) / Linear relationship / Quality of Gradient: linear regression
Method in brief: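 Each LCO probe at 3 μM was added to two-fold serial dilutions of carbohydrate in dH2O (10–0.039 mg/ml for β-1,3-glucan, cellulose, chitin; 5–0.019 mg/ml for the others), run in triplicate. Excitation spectra were scanned 300–500 nm with emission at 545 nm. Detection was a reproducible λmax and/or RFU shift versus negative control, with linear regression of RFU against concentration.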

[7] = Cellulobiose 5-0.019 mg/ml, 3 μM probe, spectral analysis, Excitation 300-500, Emission 545
[8] = amylose concentration vs RFU, linear regression
[9] = cellulobiose concentration vs RFU, linear regression
[10] = glycogen concentration vs RFU, linear regression
[11] = heparin concentration vs RFU, linear regression
[12] = Sodium alginate 5-0.019 mg/ml, 3 μM probe, spectral analysis, Excitation 300-500, Emission 545
[13] = sodium alginate concentration vs RFU, linear regression
[14] = Chondroitin Sulfate A 5-0.019 mg/ml, 3 μM probe, spectral analysis, Excitation 300-500, Emission 545
[15] = Chondroitin Sulfate A concentration vs RFU, linear regression
[16] = glucose concentration vs RFU, linear regression
[17] = β-1,3-glucan concentration vs RFU

## Cl.Cl.NCCc1cc(-c2cccs2)sc1-c1ccc(-c2sc(-c3cccs3)cc2CCN)s1 [pHTEA, penta Hydrogen Thiophene Ethanol Amine]
[1]; Amylose 5-0.019 mg/ml, 3 μM probe
  RFU change (Correlation analysis): Decreases
[1]; Amylose 5-0.019 mg/ml, 3 μM probe, spectral analysis, Excitation 300-500, Emission 545
  RFU change (Signal deviation with increasing [Carbohydrate]): Decreases
[1]; Amylose, conclusion from change in signal magnitude and/or shift in λmax
  carbohydrate can be detected and/or differentiated by the LCO: can be detected and/or differentiated
[1]; Cellulobiose 5-0.019 mg/ml, 3 μM probe
  RFU change (Correlation analysis): Unclear
[1]; [7]
  RFU change (Signal deviation with increasing [Carbohydrate]): Unclear
  λmax change: No change
[1]; [8]
  Gradient Parameters (gradient of regression line): −6680 ± 1421
  Linear relationship: Significant
  Quality of Gradient: Negative
[1]; [9]
  Gradient Parameters (gradient of regression line): 39.5 ± 66.5
  Quality of Gradient: Horizontal
[1]; to amylose
  Sensitivity: Yes
[1]; to cellulobiose
  Sensitivity: No
[2]; Glycogen 5-0.019 mg/ml
  RFU change (Correlation analysis): Decreases
  RFU change (Signal deviation with increasing [Carbohydrate]): Decreases
  λmax change: Redshift
[2]; Glycogen, conclusion from change in signal magnitude and/or shift in λmax
  carbohydrate can be detected and/or differentiated by the LCO: can be detected and/or differentiated
[2]; Heparin 5-0.019 mg/ml
  RFU change (Correlation analysis): Unclear
  RFU change (Signal deviation with increasing [Carbohydrate]): Decreases
  λmax change: Redshift
[2]; [10]
  Gradient Parameters (gradient of regression line): −451 ± 328
  Quality of Gradient: Negative
[2]; [11]
  Gradient Parameters (gradient of regression line): −109.3 ± 248
  Linear relationship: Not Significant
  Quality of Gradient: Horizontal
[2]; to glycogen
  Sensitivity: Yes
[2]; to heparin
  Sensitivity: No
[3]; Sodium alginate 5-0.019 mg/ml, 3 μM probe, probe-specific excitation λ, emission 545 nm
  RFU change (Correlation analysis): Increases
[3]; [12]
  RFU change (Signal deviation with increasing [Carbohydrate]): Increases
  λmax change: Redshift
[3]; Sodium alginate, conclusion from change in signal magnitude and/or shift in λmax
  carbohydrate can be detected and/or differentiated by the LCO: can be detected and/or differentiated
[3]; [13]
  Gradient Parameters (gradient of regression line): 832.4 ± 174.5
  Linear relationship: Significant
  Quality of Gradient: Positive
[3]; to sodium alginate
  Sensitivity: Yes
[4]; Chondroitin Sulfate A 5-0.019 mg/ml, 3 μM probe, probe-specific excitation λ, emission 545 nm
  RFU change (Correlation analysis): Increases
[4]; [14]
  RFU change (Signal deviation with increasing [Carbohydrate]): Increases
  λmax change: Redshift
[4]; [15]
  Gradient Parameters (gradient of regression line): 5989 ± 727
  Linear relationship: Significant
  Quality of Gradient: Positive
[4]; Chondroitin sulfate A, conclusion from change in signal magnitude and/or shift in λmax
  carbohydrate can be detected and/or differentiated by the LCO: can be detected and/or differentiated
[4]; to Chondroitin Sulfate A
  Sensitivity: Yes
[5]; Glucose 5-0.019 mg/ml, 3 μM probe, probe-specific excitation λ, emission 545 nm
  RFU change (Correlation analysis): Unclear
[5]; Glucose 5-0.019 mg/ml, 3 μM probe, spectral analysis, Excitation 300-500, Emission 545
  RFU change (Signal deviation with increasing [Carbohydrate]): Increases
[5]; [16]
  Gradient Parameters (gradient of regression line): −67.4 ± 37.2
  Quality of Gradient: Horizontal
[5]; to glucose
  Sensitivity: No
[6]; Cellulose 10-[…]
  RFU change (Correlation analysis): Increase
  RFU change (Signal deviation with increasing [Carbohydrate]): Increase
  λmax change: Redshift
[6]; Cellulose
  carbohydrate can be detected and/or differentiated by the LCO: can be detected and/or differentiated
[6]; Chitin 10-[…]
  RFU change (Correlation analysis): Decreases
  RFU change (Signal deviation with increasing [Carbohydrate]): Decrease
  λmax change: Redshift
[6]; Chitin
  carbohydrate can be detected and/or differentiated by the LCO: can be detected and/or differentiated
[6]; cellulose concentration vs RFU
  Gradient Parameters (gradient of regression line): 6001 ± 1187
  Linear relationship: Significant
  Quality of Gradient: Positive
[6]; chitin concentration vs RFU
  Gradient Parameters (gradient of regression line): −9030 ± 110.1
  Linear relationship: Significant
  Quality of Gradient: Negative
[6]; to cellulose
  Sensitivity: Yes
[6]; to chitin
  Sensitivity: Yes
[6]; to β-1,3-glucan
  Sensitivity: Yes
[6]; β-1,3-Glucan
  carbohydrate can be detected and/or differentiated by the LCO: can be detected and/or differentiated
[6]; β-1,3-glucan 10-[…]
  RFU change (Correlation analysis): Decrease
  RFU change (Signal deviation with increasing [Carbohydrate]): Decrease
  λmax change: Redshift
[6]; [17]
  Gradient Parameters (gradient of regression line): −664.6 ± 206.2
  Quality of Gradient: Negative

Reference: patent US9958439B2, “Carbohydrate detection” (RICHTER LIFE SCIENCE DEVELOPMENT AB, priority 2012, dated 2018)
